Values joined by “and” are separate entries in the source; they are usually repeats but may differ in a detail not shown here. Identical values can stand only once.
Tests used:
[1] = test system: cells expressing pluripotency markers derived from human embryonic stem cells; assay: MTS viability (toxicity) assay of cells expressing pluripotency markers; format: cell-based; design: Raw data (duplicate), first replicate / Average: unit not given here; conditions: for Raw data (duplicate), first replicate / Raw data (duplicate), second replicate: MTS viability assay raw reading; for Raw data (duplicate), first replicate: replicate 1; for Raw data (duplicate), second replicate: replicate 2; for Average: average of duplicate MTS raw readings; for Average of raw data (duplicate), optical density at 490 nm / % Control (percentage viability of control): MTS on day 4; for % Control (percentage viability of control): relative to Activin A + Wnt3a positive control; for % Control: viability of cells expressing pluripotency markers, relative to control
Outline: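 Cells expressing pluripotency markers, derived from human embryonic stem cells, were plated at 20,000 cells per well in 96-well clear-bottom plates and cultured overnight. Test compounds were applied in assay medium on days 1 and 2, and compound-free medium on days 3 and 4. On day 4, MTS was added and optical density at 490 nm was read in duplicate.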

[2] = test system: human embryonic stem cell line H1; assay: Dose titration secondary assay: cell number, H1; format: cell-based; conditions: positive control (Wnt3a/Activin A) normalized to 1.000
Description: It was important to confirm the activity of hits identified from primary screening and further analyze the range of activity by dose titration. New samples of a selective subset of primary screening hits were obtained as dry powders, solubilized to make fresh stock reagents, and diluted into secondary confirmation assays to evaluate effects on human embryonic stem cells.
Culture of two human embryonic stem cells (H1 and H9) was conducted as described in Example 1. Colonies of cells were maintained in an undifferentiated, pluripotent state on Matrigel™ ([…]) coated polystyrene plastic, using a 1:30 dilution of Matrigel™ in DMEM:F12 to coat the surface. Cells were split by enzymatic passage every four days on average. Passage was performed by exposing cell monolayers to a solution of collagenase (1 mg/ml; Sigma-Aldrich) for 10 to 60 minutes at 37° C. followed by gentle scraping with a pipette tip to recover cell clusters. Clusters were allowed to sediment by gravity, then washed to remove residual collagenase. Cell clusters were split at a 1:3 ratio for maintenance culture or a 1:1 ratio for subsequent assay. The human embryonic stem cell lines were maintained at less than passage 50 and routinely evaluated for normal karyotypic phenotype and absence of mycoplasma contamination.
Cell clusters of the H1 or H9 human embryonic stem cell lines used in the assay were evenly resuspended in culture medium and plated onto Matrigel™-coated 96-well Packard VIEWPLATES (PerkinElmer) in volumes of 100 μl/well. MEF conditioned medium supplemented with 8 ng/ml bFGF was used for initial plating and expansion. Daily feeding was conducted by aspirating spent culture medium from each well and replacing with an equal volume of fresh medium. Cultures were allowed to expand one to three days after plating prior to initiating assay. Plates were maintained at 37° C., 5% CO2 in a humidified box for the duration of assay.
A subset of hits resulting from primary screening was used for follow-up study and subsequent secondary assays. Twenty compounds available as dry powders were solubilized as 10 mM stocks in DMSO and stored dessicated at […] until use Immediately prior to assay, compound stocks were diluted 1:1000 to make 10 μM test compound in DMEM:F12 base medium (Invitrogen) supplemented with 0.5% FCS (HyClone) and 100 ng/ml Activin A (R&D Biosystems). This was further diluted two-fold in series to make a seven point dilution curve for each compound, also in DMEM:F12 base medium with 0.5% FCS and 100 ng/ml Activin A.
Assay was initiated by aspirating culture medium from cell monolayers in each well followed by three washes in PBS to remove residual growth factors and serum. Test volumes of 100 μl per well were added back containing medium with 0.5% FCS and different concentrations of inhibitor compounds with 100 ng/ml Activin A, without Wnt3a. Positive control wells contained the same base medium with 0.5% FCS and with 20 ng/ml Wnt3a (R&D Biosystems) in the absence of test compound. Negative control wells contained the same base medium with 0.5% FCS, in the absence of Activin A, Wnt3a, or test compound. Assay wells were aspirated and fed again with identical concentrations of test compound or control solutions on day 2 of assay. On days 3 and 4, all assay wells were aspirated and fed with DMEM:F12 supplemented with 2% FCS and 100 ng/ml Activin A in the absence of both test compound or Wnt3a. Parallel negative control wells were maintained on days 3 and 4 in DMEM:F12 base medium with 2% FCS.
At the end of culture, cells in 96-well plates were washed twice with PBS then fixed with 4% paraformaldehyde at room temperature for 20 minutes, washed three times more with PBS, and then permeabilized with 0.5% Triton X-100 for 20 minutes at room temperature. After fixing and permeabilizing, cells were washed again three times with PBS and then blocked with 4% chicken serum (Invitrogen) in PBS for 30 minutes at room temperature. […]

SMILES | Raw data (duplicate), first replicate [1] | Raw data (duplicate), second replicate [1] | Average [1] | Average of raw data (duplicate), optical density at 490 nm ([1]; cmpd conc 2.5 μM) | % Control (percentage viability of control) ([1]; cmpd conc 2.5 μM) | Average of raw data (duplicate), optical density at 490 nm ([1]; cmpd conc 5 μM) | % Control (percentage viability of control) ([1]; cmpd conc 5 μM) | Average of raw data (duplicate), optical density at 490 nm ([1]; cmpd conc 10 μM) | % Control (percentage viability of control) ([1]; cmpd conc 10 μM) | % Control [1] | Cell number ([2]; Conc 0.156 μM) | Cell number ([2]; Conc 0.313 μM) | Cell number ([2]; Conc 0.625 μM) | Cell number ([2]; Conc 1.25 μM) | Cell number ([2]; Conc 2.5 μM) | Cell number ([2]; Conc 5 μM) | Cell number ([2]; Conc 10 μM)
CN1CCN(C)CCn2cc(c3ccccc32)C2=C(C(=O)NC2=O)c2cn(c3ccccc23)CC1 [Compound 111, 8,11-Dimethyl-6,7,8,9,10,11,12,13-octahydro-20H-5,23:14,19-di(metheno)dibenzo[k,q]pyrrolo[3,4-n][1,4,7,10]tetraazacyclooctadecine-20,22(21H)-dione] | 0.821 | 0.841 | 0.831 | 0.8169 | 102.9% | 0.7718 | 96.1% | 0.6709 | 81.0% | 108.0% | 0.659 | 0.785 | 0.801 | 0.914 | 1.031 | 1.128 | 0.412
CN1CCOCCOCCN(C)CCn2cc(c3ccccc32)C2=C(C(=O)NC2=O)c2cn(c3ccccc23)CC1 [Compound 112, 12,21-Dimethyl-11,12,13,14,16,17,20,21,22,23-decahydro-1H,10H,19H-9,4:24,29-di(metheno)dibenzo[k,q]pyrrolo[3,4-n][1,4,7,10,19,22]dioxatetraazacyclotetracosine-1,3(2H)-dione] | 0.981 | 1.056 | 1.018 | 0.8103 | 101.9% | 0.1283 | – | 0.1283 | – | 145.3% | 0.912 | 0.959 | 1.111 | 1.200 | 1.005 | 0.908 | 0.996
O=C1NC(=O)C2=C1c1cn(c3ccccc13)CCOCCOCCN(Cc1cccs1)CCn1cc2c2ccccc21 [Compound 133, 14-(2-Thienylmethyl)-6,7,9,10,13,14,15,16-octahydro-12H,23H-5,26:17,22-di(metheno)dibenzo[k,q]pyrrolo[3,4-n][1,4,7,10,19]dioxatriazacyclohenicosine-23,25(24H)-dione] | 0.823 | 0.634 | 0.728 | 0.7939 | 92.8% | 0.6661 | 75.0% | 0.3010 | 24.1% | 98.1% | 0.890 | 0.888 | 1.106 | 1.124 | 0.592 | 0.262 | 0.096
O=C1NC(=O)C2=C1c1cn(c3ccccc13)CCOCCOCCN(Cc1cccc3ccccc13)CCn1cc2c2ccccc21 [Compound 136, 14-(Naphthalen-1-ylmethyl)-6,7,9,10,13,14,15,16-octahydro-12H,23H-5,26:17,22-di(metheno)dibenzo[k,q]pyrrolo[3,4-n][1,4,7,10,19]dioxatriazacyclohenicosine-23,25(24H)-dione] | 0.699 and 0.697 | 0.679 and 0.695 | 0.689 and 0.696 | 0.8432 | 99.6% | 0.7935 | 92.7% | 0.8425 | 99.5% | 86.3% and 87.3% | 0.742 | 0.868 | 0.910 | 0.850 | 0.428 | 0.173 | 0.058

Reference: patent US20130337564A1, “Treatment of Pluripotent Cells” (Janssen Biotech, Inc., priority 2012, published 2013)
